Assays:
COX-1 = target: T1, COX-1 (Ovis aries, UniProt P05979); test: In vitro COX-1 enzyme inhibitory assay; format: biochemical, sheep; conditions: mean ± SEM; n = 3
T1 construct: purchased Sigma-Aldrich C0733-5000UN
T1 sequence (P05979 25-600): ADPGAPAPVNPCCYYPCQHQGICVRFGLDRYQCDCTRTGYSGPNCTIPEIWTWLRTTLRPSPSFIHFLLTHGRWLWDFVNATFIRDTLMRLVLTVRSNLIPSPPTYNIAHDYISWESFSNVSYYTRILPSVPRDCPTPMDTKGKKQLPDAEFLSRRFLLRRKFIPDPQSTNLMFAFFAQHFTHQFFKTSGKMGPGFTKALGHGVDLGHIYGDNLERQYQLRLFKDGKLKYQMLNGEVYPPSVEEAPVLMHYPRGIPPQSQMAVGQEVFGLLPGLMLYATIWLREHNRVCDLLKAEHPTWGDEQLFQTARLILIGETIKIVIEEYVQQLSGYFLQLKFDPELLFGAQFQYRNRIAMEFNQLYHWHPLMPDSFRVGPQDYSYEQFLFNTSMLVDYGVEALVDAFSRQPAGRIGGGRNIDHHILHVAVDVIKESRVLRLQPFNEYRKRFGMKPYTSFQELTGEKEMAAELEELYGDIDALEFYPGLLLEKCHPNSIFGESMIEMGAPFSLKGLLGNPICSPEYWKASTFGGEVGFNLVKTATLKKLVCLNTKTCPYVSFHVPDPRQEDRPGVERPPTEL
Method: (§1) In a nutshell, the test specimens were made in progressively higher concentrations. Furthermore, enzyme solutions for COX-1 from a sheep source (CAT: C0733-5000UN, Sigma-Aldrich) and COX-2 from a human recombinant source (CAT: C0858) were developed. COX-1 has a concentration of 0.7–0.8 g/L, whereas COX-2 has a concentration of 300 units/mL. […] The COX-2 enzyme solution was primed at 300 U/mL levels. 10 μL of the enzyme solution was kept on ice (4°C) for 5–6 min before 50 µL of the required co-factor solution was added. This solution contains 1 mM hematin in a 0.1 M Tris-buffer with pH 8.0, 0.24 mM tetramethyl-p-phenylenediamine dihydrochloride (TMPD), and 0.9 mM glutathione. Then, for the next 5–10 min, the enzyme solution (60 µL) and experiment samples (20 µL) of different strengths has been kept at the normal temperature. Similar to that, 20 µL of 30 mM arachidonic acid was utilized to start the procedure. The mixture’s temperature was held at 37°C for an additional 15 min. A UV-visible spectrophotometer was used to determine the absorbance at 570 nm after which the process was halted by adding HCl. Using the absorbance value per unit time, the percentage of COX-2 inhibition was computed. Celecoxib served as the standard control in the present study.

COX-2 = target: T2, COX-2 (Homo sapiens, UniProt P35354); test: In vitro COX-2 enzyme inhibitory assay; format: biochemical; conditions: mean ± SEM; n = 3
T2 construct: purchased Sigma-Aldrich C0858
T2 sequence (P35354 18-604): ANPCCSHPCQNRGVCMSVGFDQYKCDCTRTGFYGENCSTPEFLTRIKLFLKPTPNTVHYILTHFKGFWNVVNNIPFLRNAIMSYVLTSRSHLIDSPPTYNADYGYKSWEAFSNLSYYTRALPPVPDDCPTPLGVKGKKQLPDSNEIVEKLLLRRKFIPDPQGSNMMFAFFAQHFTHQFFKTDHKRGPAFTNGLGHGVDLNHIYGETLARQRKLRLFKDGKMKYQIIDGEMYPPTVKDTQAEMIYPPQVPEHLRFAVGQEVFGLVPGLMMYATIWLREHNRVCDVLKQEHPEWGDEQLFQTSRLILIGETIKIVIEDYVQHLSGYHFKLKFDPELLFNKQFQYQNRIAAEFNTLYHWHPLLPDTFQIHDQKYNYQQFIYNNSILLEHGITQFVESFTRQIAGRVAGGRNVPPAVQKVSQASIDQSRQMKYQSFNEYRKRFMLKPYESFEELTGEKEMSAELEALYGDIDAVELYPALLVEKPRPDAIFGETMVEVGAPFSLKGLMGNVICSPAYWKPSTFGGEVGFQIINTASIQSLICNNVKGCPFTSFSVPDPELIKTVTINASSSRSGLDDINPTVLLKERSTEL
Method: as §1

SMILES	IC50 (COX-1) [µM]	IC50 (COX-2) [µM]
COc1ccc(C2NC(=O)NC(C(F)(F)F)=C2c2cc(-c3ccccc3)on2)cc1O (centres unmarked) [Compound C3, 4-(3-hydroxy-4-methoxyphenyl)-5-(5-phenylisoxazol-3-yl)-6-(trifluoromethyl)-3,4-dihydropyrimidin-2(1H)-one]	22.6 ± 0.9	0.93 ± 0.01
Cc1cc(C2=C(C(F)(F)F)NC(=O)NC2c2ccccc2)no1 (centres unmarked) [Compound C1, 5-(5-methylisoxazol-3-yl)-4-phenyl-6-(trifluoromethyl)-3,4-dihydropyrimidin-2(1H)-one]	239 ± 2.3	2.52 ± 0.02
O=C1NC(C(F)(F)F)=C(c2cc(-c3ccncc3)on2)C(c2ccncc2)N1 (centres unmarked) [Compound C10, 4-(Pyridin-4-yl)-5-(5-(pyridin-4-yl)isoxazol-3-yl)-6-(trifluoromethyl)-3,4 dihydropyrimidin-2(1H)-one]	61.9 ± 1.11	20 ± 0.4
COc1ccc(C2NC(=O)NC(C(F)(F)F)=C2c2cc(-c3ccc(-c4ccccc4)cc3)on2)cc1 (centres unmarked) [Compound C4, 5-(5-([1,1′-biphenyl]-4-yl)isoxazol-3-yl)-4-(4-methoxyphenyl)-6-(trifluoromethyl)-3,4-dihydropyrimidin-2(1H)-one]	66.8 ± 1.84	8.27 ± 0.2

The remaining lines, values ahead:

IC50 (COX-1) [µM]	IC50 (COX-2) [µM]	SMILES
35.5 ± 1.49	0.85 ± 0.04	O=C1NC(C(F)(F)F)=C(c2cc(-c3ccco3)on2)C(c2ccco2)N1 (centres unmarked) [Compound C5, 4-(furan-2-yl)-5-(5-(furan-2-yl)isoxazol-3-yl)-6-(trifluoromethyl)-3,4-dihydropyrimidin-2(1H)-one]
172 ± 1.9	2.43 ± 0.05	COc1ccc(C2NC(=O)NC(C(F)(F)F)=C2c2cc(C)on2)cc1 (centres unmarked) [Compound C2, 4-(4-methoxyphenyl)-5-(5-methylisoxazol-3-yl)-6-(trifluoromethyl)-3,4-dihydro-pyrimidin-2(1H)-one]
101 ± 1.17	1.7 ± 0.1	O=C1NC(C(F)(F)F)=C(c2cc(-c3ccncc3)on2)C(c2ccccc2)N1 (centres unmarked) [Compound C9, 4-phenyl-5-(5-(pyridin-4-yl)isoxazol-3-yl)-6-(trifluoromethyl)-3,4-dihydropyrimidin-2(1H)-one]
91.19 ± 0.51	0.79 ± 0.05	Cc1ccc(C2NC(=O)NC(C(F)(F)F)=C2c2cc(-c3ccco3)on2)cc1 (centres unmarked) [Compound C8, 5-(5-(furan-2-yl)isoxazol-3-yl)-4-p-tolyl-6-(trifluoromethyl)-3,4-dihydropyrimidin-2(1H)-one]
83.8 ± 0.96	0.74 ± 0.1	O=C1NC(C(F)(F)F)=C(c2cc(-c3ccco3)on2)C(c2ccc(C(F)(F)F)cc2)N1 (centres unmarked) [Compound C7, 5-(5-(furan-2-yl)isoxazol-3-yl)-6-(trifluoromethyl)-4-(4-(trifluoromethyl)phenyl)-3,4-dihydropyrimidin-2(1H)-one]
34 ± 1.31	0.55 ± 0.03	COc1ccc(C2NC(=O)NC(C(F)(F)F)=C2c2cc(-c3ccco3)on2)cc1 (centres unmarked) [Compound C6, 5-(5-(furan-2-yl)isoxazol-3-yl)-4-(4-methoxyphenyl)-6-(trifluoromethyl)-3,4-dihydro-pyrimidin-2(1H)-one]
